According to US20030170642A1, “Identification of cellular targets for biologically active molecules” (IRM, LLC, priority 2001, published 2003):
Read-outs that look alike come from different tables or passages of the source. Each block holds one molecule with its values, some of them ahead of it.

Assays:
NF-κB [1] = test: Jurkat NF-κB-luciferase reporter cell assay, TNF-alpha stimulation; format: cell-based; conditions: Jurkat reporter cells
Procedure: (§1) Alternatively, Jurkat NF-κB reporter cells were seeded at 30,000 cells per/ml in 384-well microtiter plates. Recombinant retroviruses encoding wild-type IKK-beta or NF-κB p65 were generated and used to transduce Jurkat reporter cells. Untransduced cells were treated with 1, 2 or 5 mM salicylate for 30 minutes prior to stimulation with TNF-alpha (10 ng/ml).
Cell Plating: Jurkat NF-κB reporter cells were seeded at 5 μL per well in Greiner 1536-well micro-plates using the Cartesian synQUAD. Settings for the 24,000 step motor were such that a 100 μL syringe would provide a volume per step of 4.2 nL; timing was controlled by a master dispenser solenoids and stepper motors which moved the stage and controlled the syringe pumps. The result was extremely rapid “on-the-fly” dispensing, similar to an inkjet printer. […]
Compound addition: Four Falcon 384-well plates containing compounds (Aldrich) dissolved in dimethylsulfoxide (DMSO) to a final concentration of 1 mM (excepting the last two columns which were just DMSO) were transferred to the Jurkat reporter cells. […] Coefficients of variation (CVs) before and after compound addition was determined by transferring liquid from a FITC solution bath to 384 well plates and read on the LJL Acquest in fluorescence modality.

NF-κB [2] = conditions: Jurkat reporter cells, stable retroviral over-expression, 1, 2 or 5 mM
Procedure: as §1, with “ng/ml). For transduced cells, 4 hours post retroviral incubation, cells were treated with either 0, 1, 2 or 5 mM salicylic acid.” for “ng/ml).”

NF-κB [3] = test: HEK293 NF-κB-luciferase reporter gene assay, TNF-alpha stimulation
Procedure: Day 7: HEK293 and Jurkat NF-κB reporter cells were plated and treated with a dose-response of human TNF-alpha for 2 to 24 hours, lysed and treated with Bright-Glo luciferase reagent (Promega) and luminescence measured with the LJL Acquest luminometer.
(§2) HEK293T NF-κB reporter cells were seeded at 7000 cells/well in 384-well plates in triplicate. Eighteen hours later, cells were treated with TNF-alpha (10 ng/mL) in the absence of or presence of 1, 2 or 5 mM sodium salicylate. Cells in other wells were transfected with mammalian expression vectors encoding wild-type human IKK-beta (50 ng) or NF-κB p65 (10 ng) by calcium phosphate. Eight hours post transfection, fresh medium was added with 1, 2 or 5 mM sodium salicylate and incubated for an additional 16 hours. At 24 hours post TNF addition or post transfection, cells were lysed and incubated with Bright-Glo (Promega) and Relative Light Units (RLUs) were determined using the LJL Acquest luminometer.
Stimulus and detection addition: After 30 minute incubation with compounds, a solution of TNF-alpha (Sigma) diluted to 60 ng/ml and transferred to cells using the Cartesian synQUAD such that 1 μL of stimulus was added per well to a final dilution of approximately 10 ng/ml final. […] Cells were incubated with the Alamar Blue for three hours then read on the LJL Acquest in fluorescence mode at 100,000 us/well. […] Precisely five minutes after addition of Bright-Glo, the cell plate was read in luminescence mode in the LJL Acquest at 100,000 us per well. Wells treated with compounds in which fluorescent signals were >90% of the mean across the plate, and below 50% of the mean across the plate for luminescence were identified and compounds hit picked for future studies. […] IC50 values were also determined in the HEK293 NF-κB reporter gene assay in the same manner.
(§3) HEK293 NF-κB reporter cells were plated in 96-well plates at 28,000 cells/well in D'MEM media containing 10% FBS, pen-strep antibiotics and 1 mM glutamine. […] After 24 hours, samples were treated with Bright-Glo and analyzed using the LJL Acquest luminometer.

NF-κB [4] = test: In cellulo competition: over-expression of TNF/NF-κB pathway cDNAs in HEK293 NF-κB reporter cells; conditions: for Effect of over-expressed IKK-beta or NF-κB p65 on the compound's inhibition of the NF-κB reporter: transient over-expression, 1, 2 or 5 mM
Procedure: as §2
Screening and Small Complementation: HEK293 NF-κB reporter cells were plated at 7000 cells/well in 384-well Greiner clear bottom plates using a Titertek Multidrop. Cells were incubated for 8 hours before transfection of the cDNA libraries. […] Thirty minutes compound treatment, The Hydra was used again to mix two μL DNA with 8 ul of a premixed solution 61 μl 2m CaC12, 440 μH20 distributed into a 384-well intermediate plate. Then, 10 ul of a 2× Hepes Buffered Saline solution (HBS, pH 7.0) was mixed with the DNA and pipetted automatically for 5 seconds followed by 10 μL addition of the transfection solution to HEK293 NF-κB reporter cells. After transfected plates of cells were incubated at 37° C. for 16 hours, Bright-Glo was added to each well using a twelve-head multi-channel pipettor, incubated for five minutes then read on the LJL Acquest in luminescence mode. Controls used in this experiment were limited to p65, IKK-beta, NIK and IKK-alpha. Additionally, retroviral vectors encoding firefly luciferase alone were plated in 384-wells and transfected into wild-type HEK293 cells to determine transfection efficiency and CVs.
as §3

- Block of TNF induction of NF-κB reporter (NF-κB [3]; HEK293 reporter cells, TNF-alpha 10 ng/mL, 1, 2 or 5 mM sodium salicylate): block TNF induction of NF-κB
Molecule: O=C(O)c1ccccc1O [Salicylate, salicylic acid]
- Block of TNF induction of NF-κB reporter (NF-κB [1]; TNF-alpha 10 ng/ml, 1, 2 or 5 mM salicylate): block TNF induction of NF-κB
- Effect of over-expressed IKK-beta or NF-κB p65 on the compound's inhibition of the NF-κB reporter (NF-κB [2]): over-expression of cDNA encoding human IKK-beta diminished the inhibitory effects
- Effect of over-expressed IKK-beta or NF-κB p65 on the compound's inhibition of the NF-κB reporter (NF-κB [2]; listed as salicyclic acid): over-expression of IKK-beta, but not NF-κB p65, could titrate out the effect
- Effect of over-expressed IKK-beta or NF-κB p65 on the compound's inhibition of the NF-κB reporter (NF-κB [4]): over-expression of cDNA encoding human IKK-beta diminished the inhibitory effects
- Effect of over-expressed IKK-beta or NF-κB p65 on the compound's inhibition of the NF-κB reporter (NF-κB [4]; listed as salicyclic acid): over-expression of IKK-beta, but not NF-κB p65, could titrate out the effect

- Induction of NF-κB reporter luciferase (NF-κB [3]; HEK293 reporter cells, dose-response, 2 to 24 hours): inducible
Molecule: TNF-alpha
- Induction of NF-κB reporter luciferase (NF-κB [1]; dose-response, 2 to 24 hours): inducible

Molecule: CC(=O)c1c(O)c(C)c(O)c(Cc2c(O)c3c(c(C(=O)/C=C/c4ccccc4)c2O)OC(C)(C)C=C3)c1O [Rottlerin]
- IC50 (NF-κB [3]; Homo sapiens, HEK293, read-out: IC50 concentration, NF-κB reporter gene assay): 50 nM
- Block of NF-κB reporter signals induced by TNF or over-expressed TNFR, TRAF2, NIK, IKK-beta, IKK-alpha, p65 (NF-κB [4]; compound at its IC50 concentration, 24 hours): able to block signals induced by TNF, TNFR, but not TRAF2
